The structures appear in SMILES notation. Active and inactive are the calls of the source.

The target of test [1] is Glyceraldehyde-3-phosphate dehydrogenase (Homo sapiens, UniProt P04406).
The target of test [2] is Alkaline phosphatase, placental type (Homo sapiens, UniProt P05187). Nature of the test: human placental alkaline phosphatase inhibition – biochemical, luminescence, confirmation (AID 1512). The class given is functional.
For test [3], the target named is T1, Alkaline phosphatase, tissue-nonspecific isozyme (Homo sapiens, UniProt P05186).
T1 sequence (P05186 whole entry): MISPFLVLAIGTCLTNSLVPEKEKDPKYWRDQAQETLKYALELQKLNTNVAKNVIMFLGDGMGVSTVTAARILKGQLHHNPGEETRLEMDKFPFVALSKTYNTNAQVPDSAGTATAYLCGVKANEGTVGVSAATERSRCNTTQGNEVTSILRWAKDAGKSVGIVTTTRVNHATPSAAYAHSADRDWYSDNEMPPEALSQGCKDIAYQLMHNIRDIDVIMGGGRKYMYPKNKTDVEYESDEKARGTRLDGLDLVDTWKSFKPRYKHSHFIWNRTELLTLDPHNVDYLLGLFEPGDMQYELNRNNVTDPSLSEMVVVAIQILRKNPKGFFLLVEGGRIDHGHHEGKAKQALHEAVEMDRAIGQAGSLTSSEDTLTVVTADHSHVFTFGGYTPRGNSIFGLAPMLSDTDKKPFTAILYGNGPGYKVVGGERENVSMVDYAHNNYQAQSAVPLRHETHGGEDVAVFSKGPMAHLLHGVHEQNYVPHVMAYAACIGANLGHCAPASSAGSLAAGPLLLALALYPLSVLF
Nature of the test: potency against alkaline phosphatase TNAP – biochemical, luminescent, dose response, SAR follow-up (AID 1056).

Test [4] in a line: Luminescence Cell-Based Dose Confirmation HTS to Identify Activators of 5'UTR Stem-Loop Driven Alpha-Synuclein mRNA Translation in H4 Neuroglioblastoma Cells. [Related pubchem assays: 1829 (Project Summary), 1814 (Primary HTS)]. The class given is functional.
A short description of test [5]: Luminescence Cell-Based Dose Response HTS to Identify Activators of Luciferase Translation or Activity in H4 […] Cells. [Related pubchem assays: 1829 (Project Summary), 1814 (Primary HTS)]. It is filed as functional.
The test system of test [6] is H4. Nature of the test: Luminescence Cell-Based Dose Response HTS to Identify Activators of 5'UTR Stem-Loop Driven Prion Protein mRNA Translation in H4 Neuroglioblastoma Cells. [Related pubchem assays: 1829 (Project Summary), 1814 (Primary HTS)]. The class given is functional. The conditions noted are these: Homo sapiens.
For test [7], the target named is Intestinal-type alkaline phosphatase (Homo sapiens, UniProt P09923). In words: human intestinal alkaline phosphatase activators, dose response, biochemical, luminescence, uHTS hits (AID 463120). The class given is functional.
Chain of Intestinal-type alkaline phosphatase (P09923 whole entry): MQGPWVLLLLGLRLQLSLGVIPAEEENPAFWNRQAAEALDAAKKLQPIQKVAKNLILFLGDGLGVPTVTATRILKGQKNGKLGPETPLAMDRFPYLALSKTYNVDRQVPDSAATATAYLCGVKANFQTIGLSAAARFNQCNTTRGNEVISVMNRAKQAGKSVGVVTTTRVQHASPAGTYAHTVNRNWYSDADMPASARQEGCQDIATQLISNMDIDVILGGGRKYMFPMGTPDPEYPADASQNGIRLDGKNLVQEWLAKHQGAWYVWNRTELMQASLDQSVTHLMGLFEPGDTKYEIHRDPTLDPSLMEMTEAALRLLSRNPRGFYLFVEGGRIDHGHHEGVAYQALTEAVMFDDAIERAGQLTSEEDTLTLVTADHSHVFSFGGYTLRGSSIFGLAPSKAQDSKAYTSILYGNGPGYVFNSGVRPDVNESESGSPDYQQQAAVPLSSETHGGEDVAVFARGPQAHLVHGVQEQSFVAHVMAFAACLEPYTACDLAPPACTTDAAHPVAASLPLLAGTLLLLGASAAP
Test [8] deals with E3 ubiquitin-protein ligase XIAP (Homo sapiens, UniProt P98170). In words: Counter Screen using XIAP-Bir3 for Chemical Antagonists of Bir1/2 domains of IAP-family anti-apoptotic proteins. [Related pubchem assays (depositor defined):AID1018, AID1449, AID1514, AID1638, AID1749, AID1750, AID488957, AID488963]. On the technique in general: Counterscreens check selectivity or assay interference.
Chain of E3 ubiquitin-protein ligase XIAP (P98170 whole entry): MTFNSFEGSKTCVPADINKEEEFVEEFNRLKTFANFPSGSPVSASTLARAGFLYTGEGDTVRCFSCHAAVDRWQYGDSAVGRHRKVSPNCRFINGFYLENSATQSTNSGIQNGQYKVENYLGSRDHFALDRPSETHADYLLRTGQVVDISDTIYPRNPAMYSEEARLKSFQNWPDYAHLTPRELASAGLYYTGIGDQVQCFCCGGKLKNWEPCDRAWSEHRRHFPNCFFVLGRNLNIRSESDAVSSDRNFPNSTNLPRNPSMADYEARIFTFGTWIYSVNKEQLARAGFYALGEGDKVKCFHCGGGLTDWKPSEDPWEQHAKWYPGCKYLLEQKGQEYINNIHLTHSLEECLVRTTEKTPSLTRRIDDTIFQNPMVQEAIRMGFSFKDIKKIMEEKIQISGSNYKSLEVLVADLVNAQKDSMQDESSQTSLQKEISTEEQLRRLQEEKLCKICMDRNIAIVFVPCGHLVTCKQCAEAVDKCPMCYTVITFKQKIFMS

The target of test [9] is T2, Polyadenylate-binding protein 1 (Homo sapiens, UniProt P11940). Nature of the test: MLLE binding blockers, Cy5 peptide tracer – biochemical, fluorescence polarization, Cy5-PAM2 peptide, secondary, miRNA deadenylation inhibitor project, dose response (AID 602260). The class given is functional. As to conditions: read-out: IC50_Mean.
T2 sequence (P11940 whole entry, the tested form may be a part): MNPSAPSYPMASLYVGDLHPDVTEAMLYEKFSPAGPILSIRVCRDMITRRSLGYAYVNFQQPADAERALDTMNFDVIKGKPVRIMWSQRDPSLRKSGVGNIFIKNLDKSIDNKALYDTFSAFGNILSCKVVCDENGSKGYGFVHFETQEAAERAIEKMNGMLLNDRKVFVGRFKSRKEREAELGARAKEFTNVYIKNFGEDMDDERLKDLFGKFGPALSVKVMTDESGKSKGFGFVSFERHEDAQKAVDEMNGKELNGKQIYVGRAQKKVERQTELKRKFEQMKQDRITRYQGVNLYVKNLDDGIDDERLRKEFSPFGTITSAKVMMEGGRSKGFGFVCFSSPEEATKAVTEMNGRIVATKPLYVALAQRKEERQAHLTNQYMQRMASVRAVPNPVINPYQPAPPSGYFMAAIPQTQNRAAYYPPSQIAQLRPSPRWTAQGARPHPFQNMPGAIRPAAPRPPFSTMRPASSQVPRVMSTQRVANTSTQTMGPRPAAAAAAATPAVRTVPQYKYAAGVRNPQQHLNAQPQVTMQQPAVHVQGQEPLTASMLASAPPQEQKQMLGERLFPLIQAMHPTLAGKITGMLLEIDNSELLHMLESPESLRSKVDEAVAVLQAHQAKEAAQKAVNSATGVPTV
The target of test [10] is T2, Polyadenylate-binding protein 1. Nature of the test: MLLE domain peptide-binding blockers, IC50 – biochemical, fluorescence polarization, FITC-PAM2 peptide, dose response (AID 602259). The class given is functional. As to conditions: read-out: IC50_Mean. For orientation: Fluorescence polarisation rises when a labelled molecule tumbles more slowly, as on binding a larger partner.

Test [11] in a line: microbe, parasite or virus in culture. As to conditions: Mycobacterium tuberculosis. The class given is functional.
Test [12] is described as follows: THP-1 cell cytotoxicity, dose response, cytotoxicity control for non-replicating M. tuberculosis project (AID 489025). The class given is functional.
Test [13] in a line: Vero E6 cell cytotoxicity, dose response, cytotoxicity control for non-replicating M. tuberculosis project, secondary assay (AID 492998). The conditions noted are these: Vero C1008. The class given is functional, VeroE6.
Test [14] is described as follows: cells. It is filed as functional.
The target of test [15] is T3, Bcl-2-related protein A1 (Mus musculus, UniProt Q07440).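 Note: confirmatory dose–response counterscreen on Bfl-1, used to check hits from a UBC13 polyubiquitin inhibitor campaign.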
T3 sequence (Q07440 whole entry): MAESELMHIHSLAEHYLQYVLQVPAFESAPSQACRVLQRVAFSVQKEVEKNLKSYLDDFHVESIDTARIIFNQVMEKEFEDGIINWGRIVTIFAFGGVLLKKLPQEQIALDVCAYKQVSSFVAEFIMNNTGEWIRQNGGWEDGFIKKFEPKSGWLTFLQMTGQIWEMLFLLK
The class given is functional.

Test [16] addresses T4, Ubiquitin-conjugating enzyme E2 N (Homo sapiens, UniProt P61088).
T4 sequence (P61088 whole entry): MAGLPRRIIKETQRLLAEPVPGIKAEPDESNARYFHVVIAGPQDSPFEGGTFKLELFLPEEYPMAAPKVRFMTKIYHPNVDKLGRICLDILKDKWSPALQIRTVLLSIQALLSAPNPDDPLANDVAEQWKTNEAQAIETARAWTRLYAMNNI
It is filed as functional.

Test [17] deals with T4, Ubiquitin-conjugating enzyme E2 N. It is filed as functional. The source holds these as a separate data set.
Test [18] deals with T5, Sphingosine 1-phosphate receptor 4 (Homo sapiens, UniProt O95977).
T5 sequence (O95977 whole entry): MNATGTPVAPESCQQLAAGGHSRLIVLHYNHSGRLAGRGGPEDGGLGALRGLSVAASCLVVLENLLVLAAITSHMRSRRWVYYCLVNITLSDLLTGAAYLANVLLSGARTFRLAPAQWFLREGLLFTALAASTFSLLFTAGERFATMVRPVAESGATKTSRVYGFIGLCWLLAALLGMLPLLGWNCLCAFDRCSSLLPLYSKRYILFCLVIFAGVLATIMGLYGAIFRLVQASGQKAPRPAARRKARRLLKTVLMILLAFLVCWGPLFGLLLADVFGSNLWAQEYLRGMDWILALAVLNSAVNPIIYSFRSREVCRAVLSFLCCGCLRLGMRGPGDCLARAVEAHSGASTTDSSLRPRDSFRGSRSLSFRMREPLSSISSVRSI
In words: Late-stage fluorescence dose response cell-based assay to identify agonists of the Sphingosine 1-Phosphate Receptor 4 (S1P4): purchased compounds EC50. [Related pubchem assays (depositor defined):AID1509, AID1523, AID1563, AID1686, AID1701, AID1801]. The class given is functional.

The target of test [19] is T6, Hexokinase (Trypanosoma brucei, UniProt Q38C41).
T6 sequence (Q38C41 whole entry): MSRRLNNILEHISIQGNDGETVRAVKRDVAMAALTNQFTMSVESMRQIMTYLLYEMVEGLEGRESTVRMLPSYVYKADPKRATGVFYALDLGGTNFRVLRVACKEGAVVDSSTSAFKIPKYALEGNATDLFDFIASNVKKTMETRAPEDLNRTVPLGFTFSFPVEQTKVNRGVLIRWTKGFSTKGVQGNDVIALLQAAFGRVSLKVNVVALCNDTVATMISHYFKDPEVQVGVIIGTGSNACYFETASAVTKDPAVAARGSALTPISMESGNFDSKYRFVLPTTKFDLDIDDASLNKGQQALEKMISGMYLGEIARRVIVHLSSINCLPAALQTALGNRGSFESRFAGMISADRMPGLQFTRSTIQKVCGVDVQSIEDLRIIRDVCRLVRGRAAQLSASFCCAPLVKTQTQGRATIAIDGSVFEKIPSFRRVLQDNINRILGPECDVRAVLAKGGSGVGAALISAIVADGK
Nature of the test: Confirmation assay for inhibitors of Trypanosoma brucei hexokinase 1-Analogue-first series. [Related pubchem assays (depositor defined):AID1430, AID1632, AID2516, AID2560, AID2579, AID2600, AID449725, AID492951]. It is filed as functional.

Chain of Glyceraldehyde-3-phosphate dehydrogenase (P04406 whole entry): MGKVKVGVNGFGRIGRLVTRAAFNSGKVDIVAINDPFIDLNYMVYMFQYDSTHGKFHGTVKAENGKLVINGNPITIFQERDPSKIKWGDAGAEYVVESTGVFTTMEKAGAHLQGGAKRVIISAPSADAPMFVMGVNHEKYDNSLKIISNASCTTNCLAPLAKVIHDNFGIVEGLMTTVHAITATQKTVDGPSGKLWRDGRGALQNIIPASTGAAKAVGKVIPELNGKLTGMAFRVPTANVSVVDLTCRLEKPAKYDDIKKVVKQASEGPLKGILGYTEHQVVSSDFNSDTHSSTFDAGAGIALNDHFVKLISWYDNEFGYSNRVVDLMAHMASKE
Chain of Alkaline phosphatase, placental type (P05187 whole entry): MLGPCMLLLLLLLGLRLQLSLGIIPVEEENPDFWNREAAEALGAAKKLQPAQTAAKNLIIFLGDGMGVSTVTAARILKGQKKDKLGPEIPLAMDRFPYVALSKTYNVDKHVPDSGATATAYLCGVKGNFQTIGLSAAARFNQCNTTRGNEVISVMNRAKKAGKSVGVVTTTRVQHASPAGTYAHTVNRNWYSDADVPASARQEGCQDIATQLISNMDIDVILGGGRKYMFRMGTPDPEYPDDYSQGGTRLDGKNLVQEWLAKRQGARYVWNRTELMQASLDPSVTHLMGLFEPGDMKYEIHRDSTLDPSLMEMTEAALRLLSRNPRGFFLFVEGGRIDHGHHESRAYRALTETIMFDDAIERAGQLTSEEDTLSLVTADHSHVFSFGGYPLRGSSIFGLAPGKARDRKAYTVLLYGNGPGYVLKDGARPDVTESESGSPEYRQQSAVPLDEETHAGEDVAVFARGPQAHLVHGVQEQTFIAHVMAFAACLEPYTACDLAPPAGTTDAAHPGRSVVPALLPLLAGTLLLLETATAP

In the case of `Cn1ncc2c1ncn1c(-c3ccccc3)nnc21`, the IC50 was > 100 µM (not active) in [1], > 100 µM (inactive) in [2] and > 100 µM (inactive) in test [3].
In the case of `Cc1ccc(S(=O)(=O)Nc2nc3ccccc3nc2NCc2ccco2)cc1`, the EC50 (as a rule, the midpoint of the concentration-response curve) was 8.02 µM (active) in [4], 10.8 µM (active) in test [5], 7.32 µM (active) in test [6] and > 100 µM (inactive) in test [7].
With `COc1ccc(-c2[nH]nc(-c3ccccc3)c2-c2nc3ccccc3[nH]2)cc1`, the values for the IC50 in test [1], in test [2] and in test [3] were 81.2 µM (active), > 100 µM (inactive) and > 100 µM (inactive), respectively.
In the case of `COc1cc(NS(=O)(=O)c2ccc(NC(=S)NC(=O)/C=C/c3ccc(F)cc3)cc2)ncn1`, the values for the IC50 in [8], in test [9] and in test [10] were > 20 µM (inactive), > 66 µM (inactive) and > 66 µM (inactive), respectively.
Consider `COc1ccccc1-c1nnc(SCC(=O)Nc2ccccc2[N+](=O)[O-])[nH]1`, for which the IC50 is > 100 µM (not active) in test [1], > 100 µM (inactive) in test [2] and 13.3 µM (active) in [3].
Regarding `CNC(C)C#Cc1ccc2oc3cc(C)c(C)cc3c(=O)c2c1` (stereo unspecified), the CC50 in test [11] was 29 µM (active); in test [12], 22.2 µM (active); in [13], > 20 µM (active). Besides, the IC50 in test [14] was 11.8 µM (active).
Regarding `O=C(NNC(=O)c1nn(-c2ccc(F)cc2)ccc1=O)c1ccc(Cl)cc1`, the IC50 in test [15] was > 20 µM (inactive); in test [16] it was 18.9 µM (active); in [17], 19.8 µM (active).
`Cc1ccc(OCc2cccc(COc3ccc(C)nc3[N+](=O)[O-])c2)c([N+](=O)[O-])n1`: in [18], the EC50 was > 50 µM (inactive).
With `COc1ccc(C(=O)NC(CC(=O)O)c2ccc(Cl)cc2)cc1` (stereo unspecified), the IC50 in [19] is > 25 µM (inactive).
In the case of `Cc1ccc(OCC(=O)N(C)CCOc2ccc(Cl)cc2)c([N+](=O)[O-])n1`, the EC50 in test [18] is > 50 µM (inactive).
With `Cc1ccc(OCc2c(Cl)cccc2Cl)c([N+](=O)[O-])n1`, the EC50 in [18] was > 50 µM (inactive).
With `COc1ccc(C(=O)Nc2cc(C(=O)O)ccc2Cl)cc1`, in test [19], the IC50 was > 25 µM (inactive).
Consider `C#CCOCCOCCOCCNc1nc(N2CCN(C(=O)[C@H](CCCN=C(N)N)n3cc(C(N)[C@@H](C)CC)nn3)CC2)nc(N2CCN(C(=O)[C@H](CCCCN)n3cc([C@@H](N)[C@H](C)CC)nn3)CC2)n1` (stereo partly specified), for which the IC50 in [15] is > 20 µM (inactive); in test [16], 15.2 µM (active); in test [17], 18.4 µM (active).
